Assay results published in the NIST ThermoML archive (doi:10.1016/j.fluid.2016.02.006).
± gives the expanded uncertainty stated by the source. Values belong to the compound of their own block, whether it stands above or below them.

Tests used:
[1] = Liquid, Vibrating tube method
[2] = xn = mol fraction of the nth substance listed; conditions: 101 kPa, Liquid, Vibrating tube method

- mass density ([1]; 298.15 K, 101.33 kPa): 873.71 ± 2 kg/m3
- mass density ([1]; 308.15 K, 101 kPa): 862.98 ± 2 kg/m3
- mass density ([1]; 318.15 K, 101 kPa): 852.16 ± 2 kg/m3
Compound: c1ccccc1 [benzene]

- mass density ([2]; 308.15 K, x2 = 0): 862.98 ± 2 kg/m3
- mass density ([2]; 318.15 K, x2 = 0): 852.16 ± 2 kg/m3
Compound: c1ccccc1 [benzene] + CCCCCCCC

Compound: CCCC[N+](C)(C)C.O=S(=O)([N-]S(=O)(=O)C(F)(F)F)C(F)(F)F [butyltrimethylammonium bis(trifluoromethylsulfonyl)imide]
- mass density ([1]; 298.15 K, 101.33 kPa): 1392.99 ± 6 kg/m3

- mass density ([1]; 298.15 K, 101.33 kPa): 726.15 ± 2 kg/m3
Compound: CCCCCCCCCC [decane]

- mass density ([1]; 298.15 K, 101.33 kPa): 745.28 ± 2 kg/m3
Compound: CCCCCCCCCCCC [dodecane]

- mass density ([1]; 298.15 K, 101.33 kPa): 698.86 ± 2 kg/m3
- mass density ([1]; 308.15 K, 101 kPa): 690.72 ± 2 kg/m3
- mass density ([1]; 318.15 K, 101 kPa): 682.5 ± 2 kg/m3
Compound: CCCCCCCC [octane]

- mass density ([2]; 308.15 K, x1 = 0.0959): 832.4 ± 4.5 kg/m3
- mass density ([2]; 308.15 K, x1 = 0.1937): 806.43 ± 3.9 kg/m3
- mass density ([2]; 308.15 K, x1 = 0.3048): 781.74 ± 3.5 kg/m3
- mass density ([2]; 308.15 K, x1 = 0.41): 762.04 ± 3.2 kg/m3
- mass density ([2]; 308.15 K, x1 = 0.5097): 745.81 ± 2.9 kg/m3
- mass density ([2]; 308.15 K, x1 = 0.6058): 732.34 ± 2.7 kg/m3
- mass density ([2]; 308.15 K, x1 = 0.711): 719.36 ± 2.6 kg/m3
- mass density ([2]; 308.15 K, x1 = 0.8101): 708.42 ± 2.5 kg/m3
- mass density ([2]; 308.15 K, x1 = 0.9076): 698.91 ± 2.4 kg/m3
- mass density ([2]; 308.15 K, x1 = 1): 690.72 ± 2 kg/m3
- mass density ([2]; 318.15 K, x1 = 0.0988): 821.33 ± 4.4 kg/m3
- mass density ([2]; 318.15 K, x1 = 0.1982): 796.48 ± 3.9 kg/m3
- mass density ([2]; 318.15 K, x1 = 0.3072): 771.56 ± 3.5 kg/m3
- mass density ([2]; 318.15 K, x1 = 0.407): 753.05 ± 3.1 kg/m3
- mass density ([2]; 318.15 K, x1 = 0.5096): 736.77 ± 2.9 kg/m3
- mass density ([2]; 318.15 K, x1 = 0.598): 724.35 ± 2.7 kg/m3
- mass density ([2]; 318.15 K, x1 = 0.7048): 711.47 ± 2.6 kg/m3
- mass density ([2]; 318.15 K, x1 = 0.8039): 700.49 ± 2.5 kg/m3
- mass density ([2]; 318.15 K, x1 = 0.9005): 691.19 ± 2.4 kg/m3
- mass density ([2]; 318.15 K, x1 = 1): 682.5 ± 2 kg/m3
Compound: CCCCCCCC [octane] + c1ccccc1

Compound: CCCC[N+](C)(CCCC)CCCC.O=S(=O)([N-]S(=O)(=O)C(F)(F)F)C(F)(F)F [tributylmethylammonium bis((trifluoromethyl)sulfonyl)imide]
- mass density ([1]; 298.15 K, 101.33 kPa): 1261.65 ± 6 kg/m3
